The values below come from ChEMBL document CHEMBL1135868, “Small ligands interacting with the phosphotyrosine binding pocket of the Src SH2 protein” (Bioorg Med Chem Lett, 2002).

Some results are limits rather than exact numbers.

Chain of Proto-oncogene tyrosine-protein kinase Src (P12931 2-536 limits assumed): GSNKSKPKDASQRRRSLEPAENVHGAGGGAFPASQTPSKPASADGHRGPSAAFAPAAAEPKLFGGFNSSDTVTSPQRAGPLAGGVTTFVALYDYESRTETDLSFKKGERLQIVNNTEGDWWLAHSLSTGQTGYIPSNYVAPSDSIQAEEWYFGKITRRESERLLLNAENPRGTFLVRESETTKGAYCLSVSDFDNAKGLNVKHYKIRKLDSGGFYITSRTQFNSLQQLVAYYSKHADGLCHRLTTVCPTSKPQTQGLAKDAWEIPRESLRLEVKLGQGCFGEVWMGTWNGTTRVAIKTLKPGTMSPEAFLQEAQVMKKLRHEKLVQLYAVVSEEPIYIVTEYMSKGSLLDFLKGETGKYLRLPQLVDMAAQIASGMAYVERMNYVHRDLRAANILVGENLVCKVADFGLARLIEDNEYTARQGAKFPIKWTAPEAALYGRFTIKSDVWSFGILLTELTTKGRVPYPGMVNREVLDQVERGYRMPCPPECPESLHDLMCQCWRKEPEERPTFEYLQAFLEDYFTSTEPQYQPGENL

The experiment concerns the target Proto-oncogene tyrosine-protein kinase Src (Homo sapiens, UniProt P12931). As to the kind of experiment: The compound was evaluated for its binding affinity towards phosphotyrosine binding pocket of Src protein tyrosine kinase SH2 domain.
Take `COP(=O)(O)Oc1ccccc1C=O`: the 50% inhibitory concentration (IC50) (commonly the concentration needed to halve the response being measured) stood at 3.3 mM.
The figure for `COC(=O)c1cccc(OP(=O)(O)O)c1` is 4 mM.
For the compound `COc1ccc(OP(=O)(O)O)cc1`, the IC50 amounted to 4 mM.
For `Cc1ccc(OP(=O)(O)O)cc1` the value was 2 mM; for `O=P(O)(O)Oc1ccc(SC(F)(F)F)cc1`, 1.2 mM; for `COC(=O)c1cc2ccccc2cc1OP(=O)(O)O`, 3.2 mM.
`CCc1ccc(NC(=O)P(=O)(O)OCc2ccccc2)cc1` showed an IC50 of over 5 mM.
For `CC(C)c1ccc(C(O)P(=O)(O)O)cc1` (stereo not drawn) the value was over 10 mM; for `COc1ccccc1C(O)P(=O)(O)O` (stereo not drawn), over 10 mM.
Compound `O=C(Nc1ccc(OCc2ccccc2)cc1)P(=O)(O)O` displayed an IC50 of 0.8 mM.
For `CCCOc1ccc(C(O)P(=O)(O)O)cc1` (stereo not drawn) the value was 2.4 mM.
The figure for `O=P(O)(O)Oc1cccc2ccccc12` is 1 mM; for `CCCCOc1ccc(NC(=O)P(=O)(O)O)cc1` it is 3.9 mM; for `O=P(O)(O)Oc1ccc2ccccc2c1` it is 1 mM.
For `CC(C)(C)c1ccc(OP(=O)(O)O)cc1` the value was 4 mM; for `COc1cc(NC(=O)P(=O)(O)O)cc(OC)c1OC`, 2.1 mM; for `O=P(O)(O)C(O)c1ccc2ccccc2c1` (stereo not drawn), 4.4 mM.
In the case of `O=P(O)(O)C(O)C1CCCCC1` (stereo not drawn), the IC50 was over 10 mM.
The figure for `CCOC(=O)c1ccc(NC(=O)P(=O)(O)O)cc1` is 3.6 mM; for `O=C(Nc1ccccc1OC(F)(F)F)P(=O)(O)O` it is 4 mM.
The figure for `Cc1cccc(C)c1OP(=O)(O)O` is over 10 mM.
For `O=P(O)(O)Oc1ccccc1Cl` the value was 3.5 mM; for `CC(C)OP(=O)(O)Oc1ccccc1C=O`, 2.1 mM.
As for `O=Cc1cccc(C=O)c1OP(=O)(O)O`, the IC50 was found to be 0.5 mM.
`COC(=O)c1ccc(OP(=O)(O)O)cc1`: the IC50 came to 4 mM.
`O=P(O)(O)C(O)c1ccc(-c2ccccc2)cc1` (stereo not drawn) registered a 50% inhibitory concentration (IC50) of over 10 mM.
The figure for `O=P(O)(O)Oc1cccc2cccnc12` is over 10 mM; for `CC(=O)c1ccc2ccccc2c1OP(=O)(O)O` it is 3.5 mM.
For `O=Cc1ccccc1OP(=O)(O)O` the value was 0.2 mM; for `Nc1ccc(OP(=O)(O)O)cc1`, 0.6 mM; for `O=Cc1cccc(OP(=O)(O)O)c1`, 2.4 mM.
Compound `Cc1cccc(OP(=O)(O)O)c1` displayed an IC50 of 4 mM.
Take `O=C(NCc1ccccc1)P(=O)(O)O` [(BENZYLAMINO)CARBONYLPHOSPHONIC ACID]: the IC50 was found to be 4.4 mM.
`O=P(O)(O)C(O)c1ccccc1` (stereo not drawn) [ALPHA HYDROXY BENZYLPHOSPHONATE]: the IC50 was over 10 mM.
The figure for `O=C(O)c1ccccc1OP(=O)(O)O` [FOSFOSAL] is 2 mM; for `O=C(NCCc1ccccc1)P(=O)(O)O` [PHENETHYLCARBAMOYLPHOSPHONIC ACID] it is over 5 mM.
As for `O=P(O)(O)Oc1ccccc1` [PHENYL DIHYDROGEN PHOSPHATE], the IC50 was 2.5 mM.
As to `O=[N+]([O-])c1ccc(OP(=O)(O)O)cc1` [p-NITROPHENYLPHOSPHATE], the IC50 turned out to be 1 mM.
